Test results from US20260250290A1 (BRISTOL-MYERS SQUIBB COMPANY, priority 2023, published 2026).
pIC50: −log10 of the molar value. Counter-ions that a name gives are not always drawn.

Target: T1, full length SGK1 (Homo sapiens, UniProt O00141)
T1 construct: 125 μM full length SGK1 (Life Technologies Part #PR7358A); purchased Life Technologies PR7358A
T1 sequence (O00141 1-431): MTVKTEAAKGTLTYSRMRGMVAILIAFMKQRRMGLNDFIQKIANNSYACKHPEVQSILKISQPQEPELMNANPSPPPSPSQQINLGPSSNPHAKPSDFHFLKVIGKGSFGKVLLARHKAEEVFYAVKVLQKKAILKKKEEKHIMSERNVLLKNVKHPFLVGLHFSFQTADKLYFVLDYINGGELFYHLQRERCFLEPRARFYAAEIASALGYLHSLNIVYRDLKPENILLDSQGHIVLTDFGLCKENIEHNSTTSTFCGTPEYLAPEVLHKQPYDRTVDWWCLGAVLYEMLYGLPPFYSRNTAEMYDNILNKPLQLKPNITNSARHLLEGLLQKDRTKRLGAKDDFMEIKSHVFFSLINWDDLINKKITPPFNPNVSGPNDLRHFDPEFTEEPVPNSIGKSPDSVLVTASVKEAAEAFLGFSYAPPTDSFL
Assay: SGK1 inhibition Assay A (Caliper LabChip electrophoretic separation of fluorescent peptide substrate and phosphorylated product)
Assay type: biochemical
Conditions: Assay A; 20 μM ATP, 40 min incubation; read-out: SGK1 IC50

Row | Compound | pIC50
1 | CN1CCN(CCOc2cc(C(F)F)sc2C(=O)N[C@@H]2CCCN(c3cc(-c4ccnc(C(F)F)c4)n4ncnc(N)c34)C2)CC1 [Example 335, (R)—N-(1-(4-amino-7-(2-(difluoromethyl)pyridin-4-yl)pyrrolo[2,1-f][1,2,4]triazin-5-yl)piperidin-3-yl)-5-(difluoromethyl)-3-(2-(4-methylpiperazin-1-yl)ethoxy)thiophene-2-carboxamide] | 8.40
2 | Nc1ncnn2c(-c3ccc(NS(=O)(=O)c4cc(Cl)ccc4F)cc3)cc(N3CCC[C@@H](NC(=O)c4ccc(Cl)s4)C3)c12 [Example 346, (R)—N-(1-(4-amino-7-(4-((5-chloro-2-fluorophenyl)sulfonamido)phenyl)pyrrolo[2,1-f][1,2,4]triazin-5-yl)piperidin-3-yl)-5-chlorothiophene-2-carboxamide] | 7.10
3 | COC(=O)N1CC=C(c2cc(N3CCC[C@@H](NC(=O)c4ccc(Cl)s4)C3)c3c(N)ncnn23)C1 [Example 138, methyl (R)-3-(4-amino-5-(3-(5-chlorothiophene-2-carboxamido)piperidin-1-yl)pyrrolo[2,1-f][1,2,4]triazin-7-yl)-2,5-dihydro-1H-pyrrole-1-carboxylate, TFA] | 8.15
4 | Nc1ncnn2c(-c3ccc(OC(F)F)cc3)cc(N3CCC[C@@H](NC(=O)c4ccc(Cl)s4)C3)c12 [Example 225, (R)-N-(1-(4-amino-7-(4-(difluoromethoxy)phenyl)pyrrolo [2,1-f][1,2,4]triazin-5-yl)piperidin-3-yl)-5-chlorothiophene-2-carboxamide, TFA] | 7.82
5 | CC(=O)N1CC=C(c2cc(N3CCC[C@@H](NC(=O)c4cc(N5CCN(C)CC5)c(C)s4)C3)c3c(N)ncnn23)C1 [Example 270, (R)—N-(1-(7-(1-acetyl-2,5-dihydro-1H-pyrrol-3-yl)-4-aminopyrrolo[2,1-f][1,2,4]triazin-5-yl)piperidin-3-yl)-5-methyl-4-(4-methylpiperazin-1-yl)thiophene-2-carboxamide] | 7.31
6 | CC(=O)N1CC=C(c2cc(N3CCC[C@@H](NC(=O)c4cnccn4)C3)c3c(N)ncnn23)C1 [Example 446, (R)-N-(1-(7-(1-acetyl-2,5-dihydro-1H-pyrrol-3-yl)-4-aminopyrrolo[2,1-][1,2,4]triazin-5-yl)piperidin-3-yl)pyrazine-2-carboxamide] | 6.90
7 | (R)-N-(1-(4-amino-7-(1-(2,2-difluoroethyl)-6-oxo-1,6-dihydropyridin-3-yl)pyrrolo[2,1-f][1,2,4]triazin-5-yl)piperidin-3-yl)-5-chlorothiophene-2-carboxamide [Example 520] | 8.52
8 | CS(=O)(=O)c1ccc(-c2cc(N3CCC[C@@H](NC(=O)c4ccc(Br)s4)C3)c3c(N)ncnn23)cc1 [Example 95, (R)-N-(1-(4-amino-7-(4-(methylsulfonyl)phenyl)pyrrolo[2,1-f][1,2,4]triazin-5-yl)piperidin-3-yl)-5-bromothiophene-2-carboxamide, TFA] | 8.22
9 | COCC(=O)N1CC=C(c2cc(N3CCC[C@@H](NC(=O)c4sc(Cl)cc4OCCN4CCOCC4)C3)c3c(N)ncnn23)C1 [Example 259, (R)—N-(1-(4-amino-7-(1-(2-methoxyacetyl)-2,5-dihydro-1H-pyrrol-3-yl)pyrrolo[2,1-f][1,2,4]triazin-5-yl)piperidin-3-yl)-5-chloro-3-(2-morpholinoethoxy)thiophene-2-carboxamide] | 7.55
10 | CC(=O)NCCOc1cc(C(F)F)sc1C(=O)N[C@@H]1CCCN(c2cc(-c3ccc(=O)n(CC(F)F)c3)n3ncnc(N)c23)C1 [Example 427, (R)-3-(2-acetamidoethoxy)-N-(1-(4-amino-7-(1-(2,2-difluoroethyl)-6-oxo-1,6-dihydropyridin-3-yl)pyrrolo[2,1-f][1,2,4]triazin-5-yl)piperidin-3-yl)-5-(difluoromethyl)thiophene-2-carboxamide] | 7.92
11 | Cc1cc(-c2cc(N3CCC[C@@H](NC(=O)c4sc(C(F)F)cc4OC4COC4)C3)c3c(N)ncnn23)cnc1C#N [Example 436, (R)-N-(1-(4-amino-7-(6-cyano-5-methylpyridin-3-yl)pyrrolo[2,1-f][1,2,4]triazin-5-yl)piperidin-3-yl)-5-(difluoromethyl)-3-(oxetan-3-yloxy)thiophene-2-carboxamide] | 7.92
12 | Nc1ncnn2c(-c3ccnc(C(F)(F)F)c3)cc(N3CCC[C@@H](NC(=O)c4ccc(Cl)s4)C3)c12 [Example 220, (R)-N-(1-(4-amino-7-(2-(trifluoromethyl)pyridin-4-yl)pyrrolo[2,1-f][1,2,4]triazin-5-yl)piperidin-3-yl)-5-chlorothiophene-2-carboxamide] | 8.15
13 | Nc1ncnn2c(-c3ccco3)cc(N3CCC[C@@H](NC(=O)c4ccc(Cl)s4)C3)c12 [Example 230] | 7.68
14 | COC(=O)N1CC=C(c2cc(N3CCC[C@@H](NC(=O)c4sc(C5CC5)cc4OC4CNC4)C3)c3c(N)ncnn23)C1 [Example 388, methyl (R)-3-(4-amino-5-(3-(3-(azetidin-3-yloxy)-5-cyclopropylthiophene-2-carboxamido)piperidin-1-yl)pyrrolo[2,1-f][1,2,4]triazin-7-yl)-2,5-dihydro-1H-pyrrole-1-carboxylate] | 8.52

The remaining lines, values ahead:

Row | pIC50 | Compound
15 | 7.24 | Nc1ncnn2c(-c3cnccn3)cc(N3CCC[C@@H](NC(=O)c4ccc(Cl)s4)C3)c12 [Example 535, (R)-N-(1-(4-amino-7-(pyrazin-2-yl)pyrrolo[2,1-f][1,2,4]triazin-5-yl)piperidin-3-yl)-5-chlorothiophene-2-carboxamide]
16 | 8.00 | CC(=O)N1CC=C(c2cc(N3CCC[C@@H](NC(=O)c4sc(Cl)cc4OC4CCNC(C)(C)C4)C3)c3c(N)ncnn23)C1 (mixture of isomers) [Example 627, N-((R)-1-(7-(1-acetyl-2,5-dihydro-1H-pyrrol-3-y1)-4-aminopyrrolo[2,1-f][1,2,4]triazin-5-yl)piperidin-3-y1)-5-chloro-3-((2,2-dimethylpiperidin-4-yl)oxy)thiophene-2-carboxamide]
17 | 6.44 | N#Cc1ncc(-c2cc(N3CCC[C@@H](NC(=O)c4ccc(C(F)F)s4)C3)c3c(N)ncnn23)cc1C(F)(F)F [Example 524, (R)-N-(1-(4-amino-7-(6-cyano-5-(trifluoromethyl)pyridin-3-yl)pyrrolo[2,1-f][1,2,4]triazin-5-yl)piperidin-3-yl)-5-(difluoromethyl)thiophene-2-carboxamide]
18 | 8.52 | CN1[C@@H]2CC[C@H]1C[C@H](Oc1cc(Cl)sc1C(=O)N[C@@H]1CCCN(c3cc(-c4cncnc4)n4ncnc(N)c34)C1)C2 [Example 614, N—((R)-1-(4-amino-7-(pyrimidin-5-yl)pyrrolo[2,1-f][1,2,4]triazin-5-yl)piperidin-3-yl)-5-chloro-3-((8-methyl-8-azabicyclo[3.2.1]octan-3-yl)oxy)thiophene-2-carboxamide]
19 | 6.94 | Cc1cc(-c2cc(N3CCC[C@@H](NC(=O)c4sc(Cl)cc4OCCN(C)C)C3)c3c(N)ncnn23)cn(C)c1=O [Example 691, (R)—N-(1-(4-amino-7-(1,5-dimethyl-6-oxo-1,6-dihydropyridin-3-yl)pyrrolo[2,1-f][1,2,4]triazin-5-yl)piperidin-3-yl)-5-chloro-3-(2-(dimethylamino)ethoxy)thiophene-2-carboxamide]
20 | 8.52 | CN(C)CCOc1cc(Cl)sc1C(=O)N[C@@H]1CCCN(c2cc(-c3ccc4cnoc4c3)n3ncnc(N)c23)C1 [Example 872, (R)—N-(1-(4-amino-7-(benzo[d]isoxazol-6-yl)pyrrolo[2,1-f][1,2,4]triazin-5-yl)piperidin-3-yl)-5-chloro-3-(2-(dimethylamino)ethoxy)thiophene-2-carboxamide]
21 | 7.55 | Nc1ncnn2c(C3=CCN(C(=O)c4ccncc4)C3)cc(N3CCC[C@@H](NC(=O)c4ccc(Cl)s4)C3)c12 [Example 902, (R)-N-(1-(4-amino-7-(1-isonicotinoy1-2,5-dihydro-1H-pyrrol-3-yl)pyrrolo[2,1-f][1,2,4]triazin-5-yl)piperidin-3-y1)-5-chlorothiophene-2-carboxamide]
22 | 7.39 | CC(=O)N1CC=C(c2cc(N3CCC[C@@H](NC(=O)c4cccc(N5CCN(CC(F)F)CC5)n4)C3)c3c(N)ncnn23)C1 [Example 750, (R)-N-(1-(7-(1-acetyl-2,5-dihydro-1H-pyrrol-3-yl)-4-aminopyrrolo[2,1-f][1,2,4]triazin-5-yl)piperidin-3-yl)-6-(4-(2,2-difluoroethyl)piperazin-1-yl)picolinamide]
23 | 9.40 | NC(=O)c1ccc(-c2cc(N3CCC[C@@H](NC(=O)c4sc(Cl)cc4OCC4CCNCC4)C3)c3c(N)ncnn23)cn1 [Example 644, (R)-5-(4-amino-5-(3-(5-chloro-3-(piperidin-4-ylmethoxy)thiophene-2-carboxamido)piperidin-1-y1)pyrrolo[2,1-f][1,2,4]triazin-7-y1)picolinamide]
24 | 8.15 | N#Cc1ccc(-c2cc(N3CCC[C@@H](NC(=O)c4sc(Cl)cc4OCC4CNC4)C3)c3c(N)ncnn23)cn1 [Example 635]
25 | 7.01 | CC(=O)N1CC=C(c2cc(N3CCC[C@@H](NC(=O)c4cc(C5CC5)n(C)n4)C3)c3c(N)ncnn23)C1 [Example 739, (R)-N-(1-(7-(1-acetyl-2,5-dihydro-1H-pyrrol-3-yl)-4-aminopyrrolo[2,1-f][1,2,4]triazin-5-yl)piperidin-3-yl)-5-cyclopropyl-1-methyl-1H-pyrazole-3-carboxamide]
26 | 8.00 | CC(=O)N1CC=C(c2cc(N3CCC[C@@H](NC(=O)c4sc(Cl)cc4OC4CCN(C5COC5)CC4)C3)c3c(N)ncnn23)C1 [Example 582]
